Laboratory results reported in US9845330B2, “6-nitro-2,3-dihydroimidazo[2,1-b]oxazoles and a process for the preparation thereof” (priority 2013, dated 2017).
In brackets after ≈: the same amount, converted by molar mass.

Columns and labels:
[1] = tested on: M. tuberculosis MDR (resistant to isoniazid and rifampicin); experiment: microbe, parasite or virus in culture; type: cell-based; conditions: Mycobacterium tuberculosis, 504 h, read-out: MIC M. tb MDR
[2] = tested on: M. tuberculosis XDR (resistant to isoniazid, rifampicin, amikacin and moxifloxacin); experiment: microbe, parasite or virus in culture; type: cell-based; conditions: Mycobacterium tuberculosis, 504 h, read-out: MIC M. tb XDR

SMILES | MIC [1] | MIC [2]
C[C@]1(COc2ccc(-n3cc(-c4ccccc4)nn3)cc2)Cn2cc([N+](=O)[O-])nc2O1 [IA1] | 4 µg/mL (≈ 9.56 µM) | 4 µg/mL (≈ 9.56 µM)
CCc1ccc(-c2cn(-c3ccc(OC[C@@]4(C)Cn5cc([N+](=O)[O-])nc5O4)cc3)nn2)cc1 [IA2, (R)-2-{4-[4-(4-ethylphenyl)-1H-1,2,3-triazol-1-yl]phenoxymethyl}-2,3-dihydro-2-methyl-6-nitroimidazo[2,1-b]oxazole] | 4 µg/mL (≈ 8.96 µM) | 4 µg/mL (≈ 8.96 µM)
C[C@]1(COc2ccc(-n3cc(-c4ccc(F)cc4)nn3)cc2)Cn2cc([N+](=O)[O-])nc2O1 [IA3, (R)-2-{4-[4-(4-fluorophenyl)-1H-1,2,3-triazol-1-yl]phenoxymethyl}-2,3-dihydro-2-methyl-6-nitroimidazo[2,1-b]oxazole] | 0.25 µg/mL (≈ 0.573 µM) | 0.25 µg/mL (≈ 0.573 µM)
C[C@]1(COc2ccc(-n3cc(-c4ccccc4F)nn3)cc2)Cn2cc([N+](=O)[O-])nc2O1 [IA4, (R)-2-{4-[4-(2-fluorophenyl)-1H-1,2,3-triazol-1-yl]phenoxymethyl}-2,3-dihydro-2-methyl-6-nitroimidazo[2,1-b]oxazole] | 2 µg/mL (≈ 4.58 µM) | 2 µg/mL (≈ 4.58 µM)
C[C@]1(COc2ccc(-n3cc(-c4ccc(OC(F)(F)F)cc4)nn3)cc2)Cn2cc([N+](=O)[O-])nc2O1 [IA5, (R)-2-{4-[4-(4-trifluoromethoxyphenyl)-1H-1,2,3-triazol-1-yl]phenoxymethyl}-2,3-dihydro-2-methyl-6-nitroimidazo[2,1-b]oxazole] | 0.5 µg/mL (≈ 0.995 µM) | 0.5 µg/mL (≈ 0.995 µM)
C[C@]1(COc2ccc(-n3cc(-c4ccccc4C(F)(F)F)nn3)cc2)Cn2cc([N+](=O)[O-])nc2O1 [IA6, (R)-2-{4-[4-(2-trifluoromethylphenyl)-1H-1,2,3-triazol-1-yl]phenoxymethyl}-2,3-dihydro-2-methyl-6-nitroimidazo[2,1-b]oxazole] | 1 µg/mL (≈ 2.06 µM) | 1 µg/mL (≈ 2.06 µM)
C[C@]1(COc2ccc(-n3cc(-c4ccc(F)cc4F)nn3)cc2)Cn2cc([N+](=O)[O-])nc2O1 [IA7, (R)-2-{4-[4-(2,4-difluorophenyl)-1H-1,2,3-triazol-1-yl]phenoxymethyl}-2,3-dihydro-2-methyl-6-nitroimidazo[2,1-b]oxazole] | 2 µg/mL (≈ 4.4 µM) | 2 µg/mL (≈ 4.4 µM)
Cc1ccc(-c2cn(-c3ccc(OC[C@@]4(C)Cn5cc([N+](=O)[O-])nc5O4)cc3)nn2)cc1 [IA8, (R)-2-{4-[4-(4-methylphenyl)-1H-1,2,3-triazol-1-yl]phenoxymethyl}-2,3-dihydro-2-methyl-6-nitroimidazo[2,1-b]oxazole] | 1 µg/mL (≈ 2.31 µM) | 1 µg/mL (≈ 2.31 µM)
CC(C)c1ccc(-c2cn(-c3ccc(OC[C@@]4(C)Cn5cc([N+](=O)[O-])nc5O4)cc3)nn2)cc1 [IA9, (R)-2-{4-[4-(4-isopropylphenyl)-1H-1,2,3-triazol-1-yl]phenoxymethyl}-2,3-dihydro-2-methyl-6-nitroimidazo[2,1-b]oxazole] | 1 µg/mL (≈ 2.17 µM) | 1 µg/mL (≈ 2.17 µM)
C[C@]1(COc2ccc(-n3cc(-c4cccc(F)c4)nn3)cc2)Cn2cc([N+](=O)[O-])nc2O1 [IA10, (R)-2-{4-[4-(3-fluorophenyl)-1H-1,2,3-triazol-1-yl]phenoxymethyl}-2,3-dihydro-2-methyl-6-nitroimidazo[2,1-b]oxazole] | 2 µg/mL (≈ 4.58 µM) | 2 µg/mL (≈ 4.58 µM)
COc1ccc(-c2cn(-c3ccc(OC[C@@]4(C)Cn5cc([N+](=O)[O-])nc5O4)cc3)nn2)cc1 [IA11, (R)-2-{4-[4-(4-methoxyphenyl)-1H-1,2,3-triazol-1-yl]phenoxymethyl}-2,3-dihydro-2-methyl-6-nitroimidazo[2,1-b]oxazole] | 0.25 µg/mL (≈ 0.557 µM) | 0.25 µg/mL (≈ 0.557 µM)
C[C@]1(COc2ccc(-n3cc(-c4cccc(OC(F)(F)F)c4)nn3)cc2)Cn2cc([N+](=O)[O-])nc2O1 [IA12, (R)-2-{4-[4-(3-trifluoromethoxyphenyl)-1H-1,2,3-triazol-1-yl]phenoxymethyl}-2,3-dihydro-2-methyl-6-nitroimidazo[2,1-b]oxazole] | 0.5 µg/mL (≈ 0.995 µM) | 0.5 µg/mL (≈ 0.995 µM)
C[C@]1(COc2ccc(-n3cc(-c4cccc(C(F)(F)F)c4)nn3)cc2)Cn2cc([N+](=O)[O-])nc2O1 [IA13, (R)-2-{4-[4-(3-trifluoromethylphenyl)-1H-1,2,3-triazol-1-yl]phenoxymethyl}-2,3-dihydro-2-methyl-6-nitroimidazo[2,1-b]oxazole] | 2 µg/mL (≈ 4.11 µM) | 2 µg/mL (≈ 4.11 µM)
C[C@]1(COc2ccc(-n3cc(-c4ccccn4)nn3)cc2)Cn2cc([N+](=O)[O-])nc2O1 [IA14] | 2 µg/mL (≈ 4.77 µM) | 2 µg/mL (≈ 4.77 µM)
CCCCCc1cn(-c2ccc(OC[C@@]3(C)Cn4cc([N+](=O)[O-])nc4O3)cc2)nn1 [IA15, (R)-2-{4-[4-pentyl-1H-1,2,3-triazol-1-yl]phenoxymethyl}-2,3-dihydro-2-methyl-6-nitroimidazo[2,1-b]oxazole] | 32 µg/mL (≈ 77.6 µM) | 32 µg/mL (≈ 77.6 µM)
CCCCCCCc1cn(-c2ccc(OC[C@@]3(C)Cn4cc([N+](=O)[O-])nc4O3)cc2)nn1 [IA16, (R)-2-{4-[4-heptyl-1H-1,2,3-triazol-1-yl]phenoxymethyl}-2,3-dihydro-2-methyl-6-nitroimidazo[2,1-b]oxazole] | 4 µg/mL (≈ 9.08 µM) | 4 µg/mL (≈ 9.08 µM)
C[C@]1(COc2cccc(-n3cc(-c4ccc(F)cc4)nn3)c2)Cn2cc([N+](=O)[O-])nc2O1 [IA17, (R)-2-{3-[4-(4-fluorophenyl)-1H-1,2,3-triazol-1-yl]phenoxymethyl}-2,3-dihydro-2-methyl-6-nitroimidazo[2,1-b]oxazole] | 2 µg/mL (≈ 4.58 µM) | 2 µg/mL (≈ 4.58 µM)
C[C@]1(COc2cccc(-n3cc(-c4ccc(C(F)(F)F)cc4)nn3)c2)Cn2cc([N+](=O)[O-])nc2O1 [IA18, (R)-2-{3-[4-(4-trifluoromethylphenyl)-1H-1,2,3-triazol-1-yl]phenoxymethyl}-2,3-dihydro-2-methyl-6-nitroimidazo[2,1-b]oxazole] | 2 µg/mL (≈ 4.11 µM) | 2 µg/mL (≈ 4.11 µM)
C[C@]1(COc2cccc(-n3cc(-c4ccc(OC(F)(F)F)cc4)nn3)c2)Cn2cc([N+](=O)[O-])nc2O1 [IA19, (R)-2-{3-[4-(4-trifluoromethoxyphenyl)-1H-1,2,3-triazol-1-yl]phenoxymethyl}-2,3-dihydro-2-methyl-6-nitroimidazo[2,1-b]oxazole] | 4 µg/mL (≈ 7.96 µM) | 4 µg/mL (≈ 7.96 µM)
C[C@]1(COc2cccc(-n3cc(-c4ccc(F)cc4F)nn3)c2)Cn2cc([N+](=O)[O-])nc2O1 [IA20, (R)-2-{3-[4-(2,4-difluorophenyl)-1H-1,2,3-triazol-1-yl]phenoxymethyl}-2,3-dihydro-2-methyl-6-nitroimidazo[2,1-b]oxazole] | 4 µg/mL (≈ 8.8 µM) | 4 µg/mL (≈ 8.8 µM)
C[C@]1(COc2ccccc2-n2cc(-c3ccc(F)cc3)nn2)Cn2cc([N+](=O)[O-])nc2O1 [IA21, (R)-2-{2-[4-(4-fluorophenyl)-1H-1,2,3-triazol-1-yl]phenoxymethyl}-2,3-dihydro-2-methyl-6-nitroimidazo[2,1-b]oxazole] | 1 µg/mL (≈ 2.29 µM) | 1 µg/mL (≈ 2.29 µM)
C[C@]1(COc2ccccc2-n2cc(-c3ccc(C(F)(F)F)cc3)nn2)Cn2cc([N+](=O)[O-])nc2O1 [IA22, (R)-2-{2-[4-(4-trifluoromethylphenyl)-1H-1,2,3-triazol-1-yl]phenoxymethyl}-2,3-dihydro-2-methyl-6-nitroimidazo[2,1-b]oxazole] | 4 µg/mL (≈ 8.22 µM) | 4 µg/mL (≈ 8.22 µM)
